Assay results as given in ChEMBL document CHEMBL5113403, “Design, synthesis, and biological evaluation of novel pyrazolo [3,4-d]pyrimidine derivatives as potent PLK4 inhibitors for the treatment of TRIM37-amplified breast cancer” (Eur J Med Chem, 2022).

How the values were obtained:
MCF7 [1] = test: Induction of apoptosis in human MCF7 cells assessed as early apoptotic cells at 0.50 uM incubated for 48 hrs by Annexin-V-FITC/PI staining based flow cytometric analysis (reference value: 2.83 %); assay type: functional; details: dose 0.5 µM
[2] = Metabolic stability in human liver microsomes assessed as compound remaining at 100 uM measured after 60 mins by LC-MS/MS analysis; assay type: ADME, Microsome; details: read-out: Stability
[3] = Plasma stability in human assessed as compound remaining at 100 uM measured after 60 mins by LC-MS/MS analysis relative to control; assay type: ADME, cell-free; details: read-out: Stability
CYP2C9 = CYP2C9 (Homo sapiens, UniProt P11712); test: Inhibition of CYP2C9 in human liver microsomes at 10 uM preincubated for 10 mins followed by addition of NADPH-regenerating system and measured after 15 mins by LC-MS/MS analysis relative to control; assay type: ADME, Microsome; details: time 25 min
BT-474 = test: Antiproliferative activity against human BT-474 cells assessed as cell growth inhibition incubated for 5 days by MTT assay; assay type: functional, cell-based; details: BT-474, 120 h
MCF7 [4] = test: Induction of cell cycle arrest in human MCF7 cells assessed as less G1 phase cells at 0.25 uM measured after 48 hrs by flow cytometry analysis (reference value: 0.44 %); assay type: functional
[5] = AUCinfinity in Sprague-Dawley rat at 10 mg/kg, po by LC-MS/MS analysis; assay type: ADME, organism-based; parameters: time infinity, dose 10 mg/kg, route po; details: in vivo
CYP3A4 = CYP3A4 (Homo sapiens, UniProt P08684); test: Inhibition of CYP3A4 in human liver microsomes at 10 uM preincubated for 10 mins followed by addition of NADPH-regenerating system and measured after 15 mins by LC-MS/MS analysis relative to control; assay type: ADME, Microsome; details: time 25 min
[6] = Oral bioavailability in Sprague-Dawley rat at 10 mg/kg by LC-MS/MS analysis; assay type: ADME, organism-based; details: in vivo
MCF7 [7] = test: Induction of cell cycle arrest in human MCF7 cells assessed as less G1 phase cells at 0.10 uM measured after 48 hrs by flow cytometry analysis (reference value: 0.44 %); assay type: functional; details: dose 0.1 µM
[8] = MRT in Sprague-Dawley rat at 3 mg/kg, iv by LC-MS/MS analysis; assay type: ADME, organism-based; details: in vivo
MCF7 [9] = test: Induction of cell cycle arrest in human MCF7 cells assessed as greater G1 phase cells at 0.50 uM measured after 48 hrs by flow cytometry analysis (reference value: 0.78 %); assay type: functional; details: dose 0.5 µM
[10] = Tmax in Sprague-Dawley rat at 10 mg/kg, po by LC-MS/MS analysis; assay type: ADME, organism-based; details: in vivo
MCF7 [11] = test: Induction of apoptosis in human MCF7 cells assessed as total apoptotic cells at 1 uM incubated for 48 hrs by Annexin-V-FITC/PI staining based flow cytometric analysis relative to control; assay type: functional
[12] = AUCinfinity in Sprague-Dawley rat at 3 mg/kg, iv by LC-MS/MS analysis; assay type: ADME, organism-based; parameters: time infinity, dose 3 mg/kg, route iv; details: in vivo

Chain of CYP2C9 (P11712 whole entry): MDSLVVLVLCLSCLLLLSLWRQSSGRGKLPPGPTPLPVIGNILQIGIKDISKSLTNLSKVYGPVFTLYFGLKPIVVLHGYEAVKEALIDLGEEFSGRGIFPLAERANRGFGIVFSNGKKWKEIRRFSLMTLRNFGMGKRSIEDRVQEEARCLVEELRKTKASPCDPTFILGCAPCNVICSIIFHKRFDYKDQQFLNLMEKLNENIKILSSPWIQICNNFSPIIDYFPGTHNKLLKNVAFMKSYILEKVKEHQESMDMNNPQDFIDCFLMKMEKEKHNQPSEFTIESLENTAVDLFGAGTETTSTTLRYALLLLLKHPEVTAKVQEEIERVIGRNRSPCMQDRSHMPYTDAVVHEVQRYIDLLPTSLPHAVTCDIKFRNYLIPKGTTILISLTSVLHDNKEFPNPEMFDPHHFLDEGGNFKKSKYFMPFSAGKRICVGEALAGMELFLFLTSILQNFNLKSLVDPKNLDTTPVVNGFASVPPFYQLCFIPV
Chain of CYP3A4 (P08684 whole entry): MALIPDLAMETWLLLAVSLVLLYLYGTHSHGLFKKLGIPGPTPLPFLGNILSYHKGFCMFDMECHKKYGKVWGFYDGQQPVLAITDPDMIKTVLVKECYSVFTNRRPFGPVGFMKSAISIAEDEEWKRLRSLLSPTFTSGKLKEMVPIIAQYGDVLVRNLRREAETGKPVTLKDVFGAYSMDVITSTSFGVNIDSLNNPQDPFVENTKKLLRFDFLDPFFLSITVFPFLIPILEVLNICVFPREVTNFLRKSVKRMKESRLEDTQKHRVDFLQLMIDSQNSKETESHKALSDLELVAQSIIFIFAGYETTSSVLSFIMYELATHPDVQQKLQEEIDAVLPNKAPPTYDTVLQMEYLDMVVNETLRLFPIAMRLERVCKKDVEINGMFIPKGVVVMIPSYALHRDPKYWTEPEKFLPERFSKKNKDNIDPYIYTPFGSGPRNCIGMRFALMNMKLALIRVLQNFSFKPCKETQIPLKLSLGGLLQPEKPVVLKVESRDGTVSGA

remaining at 1 h, 100 µM [2]: 106%
remaining at 1 h, 100 µM [3]: 99.2%
inhibition at 0.25 h, 10 µM (CYP2C9): 25.4%
IC50 (BT-474): 2.35 µM
AUC(0-inf) [5]: 301 ng·h/mL
inhibition at 0.25 h, 10 µM (CYP3A4): 0%
bioavailability [6]: 8.03%
MRT [8]: 1.07 h
Tmax [10]: 1.33 h
AUC(0-inf) [12]: 1070 ng·h/mL
Compound: Cc1cc(Nc2nc(NCc3ccc(F)cc3F)nc3c2cnn3C2CCOCC2)n[nH]1
Activity (MCF7 [1]): 59.7%
Activity (MCF7 [4]): 8.49%
Activity (MCF7 [7]): 0.37%
Activity (MCF7 [9]): 1.34%
Activity (MCF7 [11]): 71.84%
